Patent publication US6610653B1, “Therapeutic preparation for inhalation” (priority 1994, dated 2003)

Key:
[1] = Selection of enhancers: inhaled insulin/enhancer powder in rat model, blood glucose levels; format: in vivo; conditions: for Effect (decrease in blood glucose level): rat, inhalation; for usefulness as enhancer of insulin absorption in the lung: tested as enhancer in the method of the invention, rat model; for Effect (decrease in blood glucose level): key: +: significant decrease in blood glucose level; (+): moderate decrease in blood glucose level; −: no or very small decrease in blood glucose level
Description: Each of the compounds listed in Table III was tested for its ability to enhance uptake of insulin, and thus affect blood glucose levels, in a rat model. Various forms of insulin were employed: recombinant or semisynthetic human or bovine. […] The powder was administered to rats by inhalation, and the blood glucose levels of the rats were subsequently monitored. These levels were compared to the corresponding values obtained from rats which had inhaled insulin formulations without enhancer.

[2] = system: CaCo-2 cell monolayer; test: In vitro CaCo-2 epithelial cell monolayer transport assay; format: in vitro ADME
Description: A standard in vitro assay utilizing an epithelial cell line, CaCo-2 (available through the American Type Culture Collection (ATCC), Rockville, Md., USA), has been developed to assess the ability of various enhancer compounds to promote transport of insulin and other markers across an epithelial cell monolayer, as a model for the epithelial cell layer which functions in the lung to separate the alveolus from the pulmonary blood supply. In this assay, the enhancer and insulin or other marker are dissolved in aqueous solution at various proportions and/or concentrations, and applied to the apical side of the cell monolayer. After 60 min incubation at 37° C. and 95% RH (relative humidity), the amount of the marker on the basolateral side of the cells is determined: for example, by use of a radioactively labelled marker. […] This concentration of sodium caprate (16 mM) was also found to promote absorption of insulin across the cell monolayer. The amount of insulin which passed across the monolayer doubled in the presence of 16 mM sodium caprate, compared to the amount in the absence of any enhancer. It is expected that at higher concentrations of sodium caprate, the permeability of the cells will be further increased; however, the potential cytotoxicity of sodium caprate may prevent the use of substantially higher concentrations of this particular enhancer.

[3] = Insulin combined with sodium caprate in various w/w proportions, in vivo models
Description: In general, it is desirable to keep the ratio of insulin to enhancer as high as possible, within the range that permits fast and efficient enhancement of insulin absorption. This is important in order to minimize the risk of adverse effects, both local and systemic, attributable to the enhancer. The optimal ratio of insulin to enhancer can be ascertained for any given enhancer by testing various proportions in in vivo models such as described herein. For example, insulin was combined with sodium caprate in the following w/w proportions: 50/50, 75/25, 82.5/17.5, and 90/10. […] Other enhancers may have higher or lower optimal concentrations relative to insulin, and each individual enhancer must therefore be separately tested.

[4] = Enhancer:Insulin:lactose 4:4:92
[5] = Enhancer:Insulin:lactose 25:75:0
[6] = Enhancer:Insulin:lactose 2:4:94

Question: Which “Effect (decrease in blood glucose level)” value ([1]; Enhancer:Insulin:lactose 27:73:0) does the source give for `CCCCCCCCCC(=O)[O-].[K+]` [Potassium caprate] here?
Answer: +

Question: What about the “usefulness as enhancer of insulin absorption in the lung” value (from here on “usefulness as enhancer”) [1] of the same compound?
Answer: effective

Question: What does the source list for `C[C@H](CCC(=O)[O-])[C@H]1CC[C@H]2[C@@H]3[C@@H](O)C[C@@H]4C[C@H](O)CC[C@]4(C)[C@H]3CC[C@]12C.[Na+]` [Sodium ursodeoxycholate]?
Answer: Effect (decrease in blood glucose level) [1, 4]: +; usefulness as enhancer of insulin absorption in the lung [1]: effectively enhance insulin absorption in the lung

Question: For `CCCCCCCCCC(=O)OC[C@H](COP(=O)([O-])OCC[N+](C)(C)C)OC(=O)CCCCCCCCC` [Didecanoylphospatidylcholine], which “Effect (decrease in blood glucose level)” value ([1]; Enhancer:Insulin:lactose 4:4:94) is on record?
Answer: −

Question: For `CCCCCCCC/C=C\CCCCCCCC(=O)[O-].[K+]` [Potassium oleate], which “Effect (decrease in blood glucose level)” value [1, 4] is on record?
Answer: +

Question: With `C[C@H](CCC(=O)NCC(=O)[O-])[C@H]1CC[C@H]2[C@@H]3[C@H](O)C[C@@H]4C[C@H](O)CC[C@]4(C)[C@H]3C[C@H](O)[C@]12C.[Na+]` [Sodium glycocholate] as the compound, how does the “Effect (decrease in blood glucose level)” value [1, 4] read?
Answer: +

Question: And the “usefulness as enhancer” value [1]?
Answer: effectively enhance insulin absorption in the lung

Question: Which results are given for `CCCCCCCCOC1O[C@H](CO)[C@@H](O)[C@H](O)[C@H]1O` (stereo partly shown) [Octylglucopyranoside]?
Answer: Effect (decrease in blood glucose level) [1, 4]: (+); usefulness as enhancer of insulin absorption in the lung [1]: some absorption enhancing properties

Question: With Lysophosphatidylcholine as the compound, how does the “Effect (decrease in blood glucose level)” value [1, 4] read?
Answer: +

Question: What about the “usefulness as enhancer” value [1] of the same compound?
Answer: effective enhancer

Question: Which results are given for `CCCCCCCCCC(=O)[O-].[Na+]` [Sodium caprate]?
Answer: Effect (decrease in blood glucose level) [1, 4]: +; Effect (decrease in blood glucose level) ([1]; Enhancer:Insulin:lactose 10:90:0): (+); Effect (decrease in blood glucose level) ([1]; Enhancer:Insulin:lactose 17.5:82.5:0): (+); Effect (decrease in blood glucose level) [1, 5]: +; usefulness as enhancer of insulin absorption in the lung [1]: perform well; amount of insulin which passed across the monolayer, compared to absence of any enhancer ([2]; 16 mM sodium caprate): doubled; amount of marker (mannitol) which appears on the basolateral side, insulin added ([2]; 60 min at 37° C., 1:3 sodium caprate:insulin by weight, FIG. 8): true even when insulin is added; amount of marker (mannitol) which appears on the basolateral side ([2]; 60 min at 37° C., up to 16 mM sodium caprate, FIG. 7): dependent upon the concentration of enhancer used; improvement in absorption of insulin ([3]; insulin/sodium caprate w/w 50/50 (50% sodium caprate)): Significant improvement; improvement in absorption of insulin ([3]; insulin/sodium caprate w/w 75/25 (25% sodium caprate)): Significant improvement; improvement in absorption of insulin ([3]; insulin/sodium caprate w/w 82.5/17.5 (17.5% sodium caprate)): intermediate; improvement in absorption of insulin ([3]; insulin/sodium caprate w/w 90/10 (10% sodium caprate)): poor improvement; lowest effective concentration of sodium caprate ([3]; proportion of enhancer relative solely to insulin, 'probably 20-25%'): 15-25%

Question: With “sodium salt of ethylenediaminetetraacetic acid” as the compound, how does the “usefulness as enhancer” value [1] read?
Answer: ineffective

Question: Which “Effect (decrease in blood glucose level)” value [1, 6] does the source give for `CC(=O)OC1CC2(C)C(CC(O)C3C4(C)CCC(O)C(C)C4CCC32C)C1=C(CCCC(C)C)C(=O)NCCS(=O)(=O)O` (stereo not shown) [Sodium taurodihydrofusidate] here?
Answer: +

Question: What about the “usefulness as enhancer” value [1] of the same compound?
Answer: effectively enhance insulin absorption in the lung

Question: Which “Effect (decrease in blood glucose level)” value [1, 5] does the source give for `CCCCCCCC(=O)[O-].[Na+]` [Sodium caprylate] here?
Answer: +

Question: With `CCCCCCCCCCCCCC(=O)[O-].[Na+]` [Sodium myristate] as the compound, how does the “Effect (decrease in blood glucose level)” value ([1]; Enhancer:Insulin:lactose 30:70:0) read?
Answer: +

Question: And the “usefulness as enhancer” value [1]?
Answer: perform well

Question: Which “Effect (decrease in blood glucose level)” value [1, 4] does the source give for `C[C@H](CCC(=O)NCCS(=O)(=O)O)[C@H]1CC[C@H]2[C@@H]3[C@H](O)C[C@@H]4C[C@H](O)CC[C@]4(C)[C@H]3C[C@H](O)[C@]12C` [Sodium taurocholate] here?
Answer: +

Question: What about the “usefulness as enhancer” value [1] of the same compound?
Answer: effectively enhance insulin absorption in the lung

Question: With `CCCCCCCCCCCC(=O)[O-].[Na+]` [Sodium laurate] as the compound, how does the “Effect (decrease in blood glucose level)” value [1, 5] read?
Answer: (+)

Question: And the “usefulness as enhancer” value [1]?
Answer: perform well

Question: Which “Effect (decrease in blood glucose level)” value ([1]; Enhancer:Insulin:lactose 75:25:0) does the source give for Dimethyl-β-cyclodextrin here?
Answer: +

Question: And the “usefulness as enhancer” value [1]?
Answer: absorption enhancing effect

Question: Which “Effect (decrease in blood glucose level)” value [1, 6] does the source give for `CCCCCCCC(=O)OCC(COP(=O)([O-])OCC[N+](C)(C)C)OC(=O)CCCCCCC` (stereo not shown) [Dioctanoylphosphatidylcholine] here?
Answer: (+)

Question: Which results are given for Lysine caprate?
Answer: Effect (decrease in blood glucose level) ([1]; Enhancer:Insulin:lactose 35:65:0): +; usefulness as enhancer of insulin absorption in the lung [1]: effective
